# Reference: patent publication US20230184743A1, “SCREENING METHODS TO IDENTIFY SMALL MOLECULE COMPOUNDS THAT PROMOTE OR INHIBIT THE GROWTH OF CIRCULATING TUMOR CELLS, AND USES THEREOF” (University of Southern California, priority 2020, published 2023)
# “Also recorded” adds a separate entry of the source.
# Test system: single CTCs from 4 patient-derived CTC lines (BRx07, BRx42, BRx50, and BRx68)
# Test: Validation of candidate compounds: single CTC proliferation over 24 days (AUC)
# Format: cell-based, human
# Experimental: Cell culture. CTC lines were previously derived from metastatic breast cancer patients. CTC lines were cultured in ultra-low attachment plates with RPMI 1640 medium, supplemented with EGF (20 ng/mL), bFGF (20 ng/mL), 1×B27 and 1× antibiotic/antimycotic, in 4% 02 and 5% CO2. Single CTCs were cultured in GravityTRAP™ ULA 96 well Plates (PerkinElmer). Wells on the edges of the plates were not used to avoid influence from evaporation. Media with fresh compounds were exchanged every 3 days by inserting pipet tips onto the platform of the wells to prevent accidentally aspirating suspended CTCs at the bottom. CTC numbers were counted manually under an inverted microscope every 6 days.
# FACS sorting. Cells were pelleted and resuspended into single cell suspension in 1% BSA in PBS buffer with 7-AAD. Live single CTCs were sorted directly into 96-well GravityTRAP™ ULA Plates using a MoFlo cell sorter (Beckman Coulter). An inverted microscope was used to manually confirm that there was 1 CTC per well, 1 hour after sorting.
# Compounds screening. Compounds were from the StemSelect library obtained from the Choi Family Therapeutic Screening Facility at the Eli and Edythe Broad CIRM Center for Regenerative Medicine and Stem Cell Research at USC. Each compound was given a code to ensure unbiased assessment and blinded to the investigators. Compound information is listed in Appendix, at Table 1 of US Provisional Application No. U.S. 62/990,445, incorporated herein by reference). In the first-round screening, compounds were used with […] concentration. Stocks of compounds (10 mM concentration in DMSO) were stored in aliquots at −80° C. All compounds were thawed and refrozen for a maximum of 2 times. In the second-round validation, fresh compounds were dissolved in DMSO (Millipore sigma), and aliquots were stored at −20° C. and used only once without refreezing. Only wells started from single cells on day 0 after sorting were used in the screening experiment. Data collection was done in batches.
# Statistical analysis. […] AUC was calculated for each well in each batch, by plotting days in the x-axis and the corresponding number of cells in the y-axis, then drawing a line to connect the number of cells from the starting count day to the next count day until the end day, and finally calculating the area under this line as the sum of areas of trapezoids. […] Statistical tests were performed using R. For absolute number of cells quantification, total number of cells at end of experiment in each well in each batch was compared between treated cells and untreated control and significance was analyzed with Student t test. For other experiments, data were analyzed with Student t test, and represent the means±SEM of at least triplicate samples or averages ±SD of independent analyses, as indicated. […]
compound,measurement,setting,value
"CC(=O)N[C@@H](CS)C(=O)O [NAC, N-acetyl-L-cysteine]",additional growth advantages from treatment once a single cell colony reaches a critical size,after initial expansion from single CTCs,does not seem to confer additional growth advantages
same,single CTC expansion compared to controls,"all 4 CTC lines, NAC 300 μM, P1C2 1 μM or 0.5 μM, 24 days",promote growth of single CTCs; also recorded: statistically significant improvement
